Drawing on patent publication US7723329B2, “Substituted-3-sulfonylindazole derivatives as 5-hydroxytryptamine-6 ligands” (Wyeth LLC, priority 2005, dated 2010), this text covers Ki and melting point for 36 compounds.

The structures appear in SMILES notation. Where a name gives a salt, the structure may show the parent alone.

Data set [1] concerns the target T1, human cloned 5-HT6 receptors (Homo sapiens, UniProt P50406).
T1 construct: expressed in transfected cells; host or cells: HeLa cells
The data set can be described thus: 5-HT6 binding affinity, [3H]-LSD displacement. The following applies: membranes of Hela cells expressing human cloned 5-HT6 receptors; [3H]-LSD 3.0 nM; 120 minutes at room temperature.

T1 sequence (P50406 whole entry): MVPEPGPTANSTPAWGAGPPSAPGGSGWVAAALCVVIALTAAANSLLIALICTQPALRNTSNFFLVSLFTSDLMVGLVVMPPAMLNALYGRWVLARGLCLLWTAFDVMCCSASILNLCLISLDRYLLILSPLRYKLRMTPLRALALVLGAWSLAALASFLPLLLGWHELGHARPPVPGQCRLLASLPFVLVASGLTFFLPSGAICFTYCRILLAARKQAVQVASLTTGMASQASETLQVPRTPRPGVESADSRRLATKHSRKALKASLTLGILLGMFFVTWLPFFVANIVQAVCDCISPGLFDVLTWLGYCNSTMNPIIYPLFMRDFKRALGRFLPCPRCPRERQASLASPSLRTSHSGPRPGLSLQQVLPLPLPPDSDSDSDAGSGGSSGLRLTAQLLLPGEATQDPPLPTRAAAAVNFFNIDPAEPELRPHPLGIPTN

What is called Ki is a measure of affinity in units of concentration, obtained from inhibition or displacement. Lower therefore signals a stronger hold on the target. A word on the melting point: it is the temperature of the solid-liquid transition. In the case of `O=S(=O)(c1cccc2ccccc12)c1n[nH]c2ccc(CCCCN3CCCC3)cc12` [Example 194], the melting point was in the range of 238 to 240 °C. This compound also had a Ki in data set [1] of 11 to 25 nM.

For the compound `Cl.NCCc1cccc2c(S(=O)(=O)c3ccccc3)n[nH]c12` [Example 174, {2-[3-(Phenylsulfonyl)-1H-indazol-7-yl]ethyl}amine Hydrochloride], the melting point was 157 to 160 °C. This compound also registered a Ki in data set [1] of 0.01 to 10 nM.

On to `CC(C)NCCCCc1ccc2[nH]nc(S(=O)(=O)c3cccc4ccccc34)c2c1` [Example 192], for which the melting point lay in the range of 145 to 150 °C. In data set [1], this compound came in with a Ki of 0.01 to 10 nM. Compound `CN(C)CCCc1ccc2[nH]nc(S(=O)(=O)c3cccc4ccccc34)c2c1` (as salt: hydrochloride) [Example 182, N,N-Dimethyl-N-{3-[3-(naphthylsulfonyl)-1H-indazol-5-yl]propyl}amine hydrochloride] registered a melting point of 247 to 248 °C.

On to `CN(C)CCCCc1ccc2[nH]nc(S(=O)(=O)c3cccc4ccccc34)c2c1` [Example 190], for which the melting point was in the range of 232 to 233 °C. Moreover, the Ki in data set [1] lay in the range of 0.01 to 10 nM. The like results for `CCN(C)CCCCc1ccc2[nH]nc(S(=O)(=O)c3cccc4ccccc34)c2c1` [Example 193] were, in that order, 195 to 198 °C and 0.01 to 10 nM. With `CCNCCCCc1ccc2[nH]nc(S(=O)(=O)c3cccc4ccccc34)c2c1` [Example 191], the melting point fell in the range of 140 to 145 °C. The Ki in data set [1] lay in the range of 0.01 to 10 nM.

On to `CN(C)CCOCc1ccc2[nH]nc(S(=O)(=O)c3cccc4ccccc34)c2c1` (as salt: HCl) [Example 156, N,N-Dimethyl-2-{[3-(1-naphthylsulfonyl)-1H-indazol-5-yl]methoxy}ethanamine], for which the melting point was > 200 °C. The compound `CC(C)NCCOc1ccc2c(c1)c(S(=O)(=O)c1cccc3ccccc13)nn2Cc1cccc(Cl)c1` (as salt: hydrochloride) [Example 57, {2-[1-(3-Chloro-benzyl)-3-(naphthalene-1-sulfonyl)-1H-indazol-5-yloxy]-ethyl}-isopropyl-amine] displayed a melting point of 206 to 208 °C. On the same count and under the same terms, the same measure for `O=S(=O)(c1ccccc1)c1n[nH]c2ccc(OCCNC3CC3)cc12` (as salt: hydrochloride) [Example 8, [2-(3-Benzenesulfonyl-1H-indazol-5-yloxy)-ethyl]-cyclopropyl-amine]: 184 to 185 °C (dec.); for `O=S(=O)(c1cccc2ccccc12)c1n[nH]c2ccc(CN3CCNCC3)cc12` (as salt: hydrochloride) [Example 195, 3-(1-Naphthylsulfonyl)-5-(piperazin-1-ylmethyl)-1H-indazole]: > 200 °C. For the compound `CCN(C)CCCc1ccc2[nH]nc(S(=O)(=O)c3cccc4ccccc34)c2c1` [Example 186], the melting point lay within 205 to 207 °C. This compound also gave a Ki in data set [1] of 0.01 to 10 nM. For `CNCCCc1ccc2[nH]nc(S(=O)(=O)c3cccc4ccccc34)c2c1` [Example 183] the same measures were 155 to 160 °C and 0.01 to 10 nM. As for `N[C@@H]1CCN(Cc2ccc3[nH]nc(S(=O)(=O)c4cccc5ccccc45)c3c2)C1` (as salt: HCl) [Example 201], the melting point is > 200 °C.

With `O=S(=O)(c1cccc2ccccc12)c1n[nH]c2ccc(CN[C@H]3CCNC3)cc12` (as salt: hydrochloride) [Example 154, (3S)—N-{([3-(1-Naphthylsulfonyl)-1H-indazol-5-yl]methyl}pyrrolidin-3-amine Hydrochloride], the melting point was > 200 °C. Compound `O=S(=O)(c1cccc2ccccc12)c1n[nH]c2ccc(CCCN3CCCC3)cc12` [Example 187] showed a melting point of 135 to 138 °C. Also, the Ki in data set [1] was in the range of 0.01 to 10 nM. The compound `O=S(=O)(c1ccccc1)c1n[nH]c2ccc(OCCN3CCCCC3)cc12` (as salt: hydrochloride) [Example 3, 3-Benzenesulfonyl-5-(2-piperidin-1-yl-ethoxy)-1H-indazole] displayed a melting point of 249 to 250 °C. The same measure, in the same setting: then `CN(C)CCCc1ccc2[nH]nc(S(=O)(=O)c3ccccc3)c2c1` (as salt: trifluoroacetate) [Example 177, N,N-Dimethyl-N-{3-[3-(phenylsulfonyl)-1H-indazol-5-yl]propyl}amine trifluoroacetate], with 75 to 80 °C; and `CCCCNCCOc1ccc2[nH]nc(S(=O)(=O)c3ccccc3)c2c1` (as salt: hydrochloride) [Example 7, [2-(3-Benzenesulfonyl-1H-indazol-5-yloxy)-ethyl]-butyl-amine], with 271 to 273 °C (dec.). For the compound `CCNCCOc1ccc2c(c1)c(S(=O)(=O)c1cccc3ccccc13)nn2C` (as salt: hydrochloride) [Example 44, Ethyl-{2-[1-methyl-3-(naphthalene-1-sulfonyl)-1H-indazol-5-yloxy]-ethyl}-amine], the melting point is 276 to 277 °C (dec.). As to `NCCCc1ccc2[nH]nc(S(=O)(=O)c3cccc4ccccc34)c2c1` [Example 188, {3-[3-(Naphthylylsulfonyl)-1H-indazol-5-yl]propyl}amine], the melting point fell in the range of 92 to 94 °C. In data set [1], this compound registered a Ki of 0.01 to 10 nM. Turning to `CC(C)NCCCc1ccc2[nH]nc(S(=O)(=O)c3ccccc3)c2c1` (as salt: trifluoroacetate) [Example 179, N-Isopropyl-N-{3-[3-(phenylsulfonyl)-1H-indazol-5-yl]propyl}amine trifluoroacetate], the melting point fell in the range of 169 to 171 °C. `O=S(=O)(c1ccccc1)c1n[nH]c2c(CCNC3CC3)cccc12` (as salt: hydrochloride) [Example 172, N-{2-[3-(phenylsulfonyl)-1H-indazol-7-yl]ethyl}cyclopropanamine hydrochloride] registered a melting point of 115 to 117 °C. For the compound `O=C(c1ccc2[nH]nc(S(=O)(=O)c3cccc4ccccc34)c2c1)N1CCNCC1` (as salt: hydrochloride) [Example 202, 3-(1-Naphthylsulfonyl)-5-(piperazin-1 ylcarbonyl)-1H-indazole], the melting point is > 200 °C. In turn, `CC(c1ccc2[nH]nc(S(=O)(=O)c3cccc4ccccc34)c2c1)N1CCN(C)CC1` (stereo not shown) [Example 203, 5-[1-(4-Methylpiperazin-1-yl)ethyl]-3-(1-naphthylsulfonyl)-1H-indazole] yielded a melting point of 183 to 185 °C. For the same compound, the Ki in data set [1] lay in the range of 0.01 to 10 nM.

`CN(C)CCc1ccc2[nH]nc(S(=O)(=O)c3ccccc3)c2c1` (as salt: hydrochloride) [Example 176, N,N-Dimethyl-N-{2-[3-(phenylsulfonyl)-1H-indazol-5-yl]ethyl}amine hydrochloride] displayed a melting point of 108 to 110 °C. Compound `CC(C)NCCCc1ccc2[nH]nc(S(=O)(=O)c3cccc4ccccc34)c2c1` [Example 185] yielded a melting point of 160 to 163 °C. In data set [1], this compound displayed a Ki of 0.01 to 10 nM. Turning to `CC1CN(Cc2ccc3[nH]nc(S(=O)(=O)c4cccc5ccccc45)c3c2)CC(C)N1` (stereo not shown) (as salt: HCl) [Example 198], the melting point was > 200 °C. On to `CNCCc1ccc2[nH]nc(S(=O)(=O)c3ccccc3)c2c1` [Example 175, N-Methyl-N-{2-[3-(phenylsulfonyl)-1H-indazol-5-yl]ethyl}amine], for which the melting point lay within 186 to 188 °C. The same compound showed a Ki in data set [1] of 0.01 to 10 nM. In the case of `C[C@@H]1CN(Cc2ccc3[nH]nc(S(=O)(=O)c4cccc5ccccc45)c3c2)CCN1` (as salt: HCl) [Example 200], the melting point lay in the range of 179 to 181 °C. The same measure, in the same setting: the same measure for `NCCCCc1ccc2[nH]nc(S(=O)(=O)c3ccccc3)c2c1` (as salt: hydrochloride) [Example 181, {4-[3-(Phenylsulfonyl)-1H-indazol-5-yl]butyl}amine hydrochloride]: 120 to 125 °C; for `CC(C)NCCOc1ccc2[nH]nc(S(=O)(=O)c3ccccc3)c2c1` (as salt: hydrochloride) [Example 6, [2-(3-Benzenesulfonyl-1H-indazol-5-yloxy)-ethyl]-isopropyl-amine]: 275 to 277 °C (dec.).

As to `O=S(=O)(c1ccccc1)c1n[nH]c2ccc(OCCNC3CCCC3)cc12` (as salt: hydrochloride) [Example 9, 3-Benzenesulfonyl-5-(2-cyclopentyl-1-yl-ethoxy)-1H-indazole], the melting point was 255 to 258 °C (dec.).

Consider `NCCOc1ccc2[nH]nc(S(=O)(=O)c3ccccc3)c2c1` (as salt: hydrochloride) [Example 13, 2-(3-Benzenesulfonyl-1H-indazol-5-yloxy)-ethylamine], for which the melting point is > 300 °C. In the case of `CC1CN(Cc2ccc3[nH]nc(S(=O)(=O)c4cccc5ccccc45)c3c2)CCN1` (stereo not shown) (as salt: HCl) [Example 197], the melting point was > 200 °C. As for `CCNCCOc1ccc2[nH]nc(S(=O)(=O)c3ccccc3)c2c1` (as salt: hydrochloride) [Example 4, [2-(3-Benzenesulfonyl-1H-indazol-5-yloxy)-ethyl]-ethyl-amine], the melting point is 248 to 250 °C (dec.).
